Measurements from patent US20080194628A1, “Donepezil Salts Suitable for the Preparation of Pharmaceutical Compositions” (priority 2004, published 2008).

Details: comparison with donepezil hydrochloride tablet

## COc1cc2c(cc1OC)C(=O)C(CC1CCN(Cc3ccccc3)CC1)C2.O=S(=O)(O)O (stereo not shown) [Example 12, donepezil sulfate (1:1)]
  Stability of tablets prepared from the salt, compared with the tablet prepared from the hydrochloride salt: practically identical to that of the tablet prepared from the hydrochloride salt
